In patent publication US20240016811A1, “CANCER THERAPY USING A COMBINATION OF CDK7 INHIBITOR WITH AN ANTI-MICROTUBULE AGENT” (Aurigene Oncology Limited, priority 2020, published 2024):
“And” between values parts separate entries of the source, which are not always exact repeats. Equal values may be shown once.

Test system: DU 145 cells
Assay: Proliferation of DU 145 cells after 3-day treatment, measured using CTG reagent; single agents and combination, synergy analysed with CompuSyn
Assay type: cell-based
Settings: for inhibition of proliferation in DU145 cells: single agents, conclusion in words
Procedure: The effect of 3-day compound treatment on cell proliferation was measured using CTG reagent.

CC(C)[C@H](C(=O)Nc1cc(C2CC2)[nH]n1)c1cccc(-c2ccc(NC(=O)/C=C/CN3CCOCC3)nc2)c1 (single isomer, unassigned) [Compound-44A]
% inhibition in proliferation (Compound-44A 0.00209 nM, Day-3, replicate columns): 0.7% and −2.6% and 2.1% | % inhibition in proliferation (Compound-44A 0.00627 nM, Day-3, replicate columns): −1.3% and 3.7% and −0.3% | % inhibition in proliferation (Compound-44A 0.01882 nM, Day-3, replicate columns): −4.7% and 2.1% and −5.1% | % inhibition in proliferation (Compound-44A 0.0565 nM, Day-3, replicate columns): −1.2% and 8.1% and 1.7% | % inhibition in proliferation (Compound-44A 0.1694 nM, Day-3, replicate columns): −3.1% and 4.7% and −5.4% | % inhibition in proliferation (Compound-44A 0.5081 nM, Day-3, replicate columns): 8.2% and 0.7% and 3.1% | % inhibition in proliferation (Compound-44A 1.5242 nM, Day-3, replicate columns): 1.6% and −1.5% and 5.6% | % inhibition in proliferation (Compound-44A 4.5725 nM, Day-3, replicate columns): 5.9% and 3.4% | % inhibition in proliferation (Compound-44A 13.7174 nM, Day-3, replicate columns): 13.0% and 12.9% | % inhibition in proliferation (Compound-44A 41.1523 nM, Day-3, replicate columns): 30.9% and 25.2% | % inhibition in proliferation (Compound-44A 123.4568 nM, Day-3, replicate columns): 56.2% and 55.9% | % inhibition in proliferation (Compound-44A 370.3704 nM, Day-3, replicate columns): 77.9% and 80.7% | % inhibition in proliferation (Compound-44A 1111.1111 nM, Day-3, replicate columns): 110.4% and 105.8% | % inhibition in proliferation (Compound-44A 3333.3333 nM, Day-3, replicate columns): 111.8% and 110.8% | % inhibition in proliferation (Compound-44A 10000.00 nM, Day-3, replicate columns): 106.1% and 106.3% | inhibition at 0.0005 µM (Homo sapiens, DU-145, 72 h, Compound-44A 0.5 nM alone (docetaxel 0), checkerboard, 3 days): 3.98% | inhibition at 0.0045 µM (Homo sapiens, DU-145, 72 h, Compound-44A 4.5 nM alone (docetaxel 0), checkerboard, 3 days): 4.81% | inhibition at 0.0137 µM (Homo sapiens, DU-145, 72 h, Compound-44A 13.7 nM alone (docetaxel 0), checkerboard, 3 days): 14.6% | inhibition at 0.0411 µM (Homo sapiens, DU-145, 72 h, Compound-44A 41.1 nM alone (docetaxel 0), checkerboard, 3 days): 29.1% | inhibition at 0.1234 µM (Homo sapiens, DU-145, 72 h, Compound-44A 123.4 nM alone (docetaxel 0), checkerboard, 3 days): 55.7% | inhibition at 0.3703 µM (Homo sapiens, DU-145, 72 h, Compound-44A 370.3 nM alone (docetaxel 0), checkerboard, 3 days): 77.6% | inhibition at 0.0045725 µM (Homo sapiens, DU-145, Compound-44A 4.5725 nM, Day-3, replicate columns): 5.1% | inhibition at 0.0137174 µM (Homo sapiens, DU-145, Compound-44A 13.7174 nM, Day-3, replicate columns): 18% | inhibition at 0.0411523 µM (Homo sapiens, DU-145, Compound-44A 41.1523 nM, Day-3, replicate columns): 31.2% | inhibition at 0.123457 µM (Homo sapiens, DU-145, Compound-44A 123.4568 nM, Day-3, replicate columns): 55% | inhibition at 0.37037 µM (Homo sapiens, DU-145, Compound-44A 370.3704 nM, Day-3, replicate columns): 74.1% | inhibition at 1.11111 µM (Homo sapiens, DU-145, Compound-44A 1111.1111 nM, Day-3, replicate columns): 109% | inhibition at 3.33333 µM (Homo sapiens, DU-145, Compound-44A 3333.3333 nM, Day-3, replicate columns): 112% | inhibition at 10 µM (Homo sapiens, DU-145, Compound-44A 10000.00 nM, Day-3, replicate columns): 107% | inhibition of proliferation in DU145 cells: dose dependent inhibition of proliferation

CC(=O)O[C@@]12CO[C@@H]1C[C@H](O)[C@@]1(C)C(=O)[C@H](O)C3=C(C)[C@@H](OC(=O)[C@H](O)[C@@H](NC(=O)OC(C)(C)C)c4ccccc4)C[C@@](O)([C@@H](OC(=O)c4ccccc4)[C@H]21)C3(C)C [Docetaxel, docetaxel]
% inhibition in proliferation (Docetaxel 0.0002 nM, Day-3, replicate columns): 1.6% and −0.5% and 3.2% | % inhibition in proliferation (Docetaxel 0.0007 nM, Day-3, replicate columns): −3.9% and −5.1% and 2.9% | % inhibition in proliferation (Docetaxel 0.0021 nM, Day-3, replicate columns): −2.5% and 1.2% and 3.4% | % inhibition in proliferation (Docetaxel 0.0188 nM, Day-3, replicate columns): 0.8% and 0.9% and 10.0% | % inhibition in proliferation (Docetaxel 0.0565 nM, Day-3, replicate columns): 8.8% and 16.0% and 24.0% | % inhibition in proliferation (Docetaxel 0.1694 nM, Day-3, replicate columns): 8.3% and 2.2% and 4.1% | % inhibition in proliferation (Docetaxel 0.5081 nM, Day-3, replicate columns): 15.5% and 18.3% | % inhibition in proliferation (Docetaxel 1.5242 nM, Day-3, replicate columns): 57.5% and 59.4% | % inhibition in proliferation (Docetaxel 4.5725 nM, Day-3, replicate columns): 98.6% and 99.2% | % inhibition in proliferation (Docetaxel 13.7174 nM, Day-3, replicate columns): 117.2% and 114.3% | % inhibition in proliferation (Docetaxel 41.1523 nM, Day-3, replicate columns): 123.1% and 120.5% | % inhibition in proliferation (Docetaxel 123.4568 nM, Day-3, replicate columns): 126.0% and 122.3% | % inhibition in proliferation (Docetaxel 370.3704 nM, Day-3, replicate columns): 125.0% and 123.2% | % inhibition in proliferation (Docetaxel 1111.1111 nM, Day-3, replicate columns): 125.2% and 121.8% | % inhibition in proliferation (Docetaxel 3333.3333 nM, Day-3, replicate columns): 124.1% and 121.7% | % inhibition in proliferation (Docetaxel 10000.00 nM, Day-3, replicate columns): 118.3% and 117.0% | inhibition at 200 fM (Homo sapiens, DU-145, 72 h, Docetaxel 0.0002 nM alone (Compound-44A 0), checkerboard, 3 days): 1.42% | inhibition at 700 fM (Homo sapiens, DU-145, 72 h, Docetaxel 0.0007 nM alone (Compound-44A 0), checkerboard, 3 days): 0% | inhibition at 2.1 pM (Homo sapiens, DU-145, 72 h, Docetaxel 0.0021 nM alone (Compound-44A 0), checkerboard, 3 days): 0.69% | inhibition at 18.8 pM (Homo sapiens, DU-145, 72 h, Docetaxel 0.0188 nM alone (Compound-44A 0), checkerboard, 3 days): 3.89% | inhibition at 56.5 pM (Homo sapiens, DU-145, 72 h, Docetaxel 0.0565 nM alone (Compound-44A 0), checkerboard, 3 days): 16.3% | inhibition at 0.0001694 µM (Homo sapiens, DU-145, 72 h, Docetaxel 0.1694 nM (Table 5: 0.17) alone (Compound-44A 0), checkerboard, 3 days): 4.86% | inhibition at 0.0005081 µM (Homo sapiens, DU-145, 72 h, Docetaxel 0.5081 nM (Table 5: 0.51) alone (Compound-44A 0), checkerboard, 3 days): 15.9% | inhibition at 0.00152 µM (Homo sapiens, DU-145, 72 h, Docetaxel 1.52 nM alone (Compound-44A 0), checkerboard, 3 days): 55.6% | inhibition at 0.00457 µM (Homo sapiens, DU-145, 72 h, Docetaxel 4.57 nM alone (Compound-44A 0), checkerboard, 3 days): 97.5% | inhibition at 0.01372 µM (Homo sapiens, DU-145, 72 h, Docetaxel 13.72 nM alone (Compound-44A 0), checkerboard, 3 days): 116% | inhibition at 0.04115 µM (Homo sapiens, DU-145, 72 h, Docetaxel 41.15 nM alone (Compound-44A 0), checkerboard, 3 days): 122% | inhibition at 0.12346 µM (Homo sapiens, DU-145, 72 h, Docetaxel 123.46 nM alone (Compound-44A 0), checkerboard, 3 days): 125% | inhibition at 0.37037 µM (Homo sapiens, DU-145, 72 h, Docetaxel 370.37 nM alone (Compound-44A 0), checkerboard, 3 days): 125% | inhibition at 1.11111 µM (Homo sapiens, DU-145, 72 h, Docetaxel 1111.11 nM alone (Compound-44A 0), checkerboard, 3 days): 124% | inhibition at 3.33333 µM (Homo sapiens, DU-145, 72 h, Docetaxel 3333.33 nM alone (Compound-44A 0), checkerboard, 3 days): 123% | inhibition at 10 µM (Homo sapiens, DU-145, 72 h, Docetaxel 10000.00 nM alone (Compound-44A 0), checkerboard, 3 days): 118% | inhibition at 6.3 pM (Homo sapiens, DU-145, 72 h, Docetaxel […] alone (Compound-44A 0), checkerboard, 3 days): 0% | inhibition at 0.0005081 µM (Homo sapiens, DU-145, Docetaxel 0.5081 nM, Day-3, replicate columns): 14% | inhibition at 0.0015242 µM (Homo sapiens, DU-145, Docetaxel 1.5242 nM, Day-3, replicate columns): 49.8% | inhibition at 0.0045725 µM (Homo sapiens, DU-145, Docetaxel 4.5725 nM, Day-3, replicate columns): 94.6% | inhibition at 0.0137174 µM (Homo sapiens, DU-145, Docetaxel 13.7174 nM, Day-3, replicate columns): 115% | inhibition at 0.0411523 µM (Homo sapiens, DU-145, Docetaxel 41.1523 nM, Day-3, replicate columns): 123% | inhibition at 0.123457 µM (Homo sapiens, DU-145, Docetaxel 123.4568 nM, Day-3, replicate columns): 126% | inhibition at 0.37037 µM (Homo sapiens, DU-145, Docetaxel 370.3704 nM, Day-3, replicate columns): 126% | inhibition at 1.11111 µM (Homo sapiens, DU-145, Docetaxel 1111.1111 nM, Day-3, replicate columns): 125% | inhibition at 3.33333 µM (Homo sapiens, DU-145, Docetaxel 3333.3333 nM, Day-3, replicate columns): 124% | inhibition at 10 µM (Homo sapiens, DU-145, Docetaxel 10000.00 nM, Day-3, replicate columns): 119% | inhibition of proliferation in DU145 cells: dose dependent inhibition of proliferation
